Measured values from PMC5458211, “Mitochondrial VDAC1-based peptides: Attacking oncogenic properties in glioblastoma” (Oncotarget, 2017).
Non-standard residues stand in square brackets, D forms with d. Residues, ends and D or L forms follow the SMILES beside them.

Key:
[1] = system: U-87MG cells; assay: Cell death in U-87MG by free and PLGA-encapsulated peptide; format: cell-based, human; conditions: 12 h, PI staining and FACS; Fig 7B
Protocol: B. U-87MG cells (2×10^5) were incubated for 12 h with the indicated concentrations of DMSO, Retro-Tf-D-LP4 peptide (Pep), or Retro-Tf-D-LP4 encapsulated in PLGA nanoparticles (PLGA-Pep). Samples of Retro-Tf-D-LP4 encapsulated in PLGA nanoparticles were centrifuged (15000g, 5 min) to separate the supernatant (Sup), containing free peptide, and the pellet, containing encapsulated Retro-Tf-D-LP4 peptide. Cell death was analyzed by PI staining and FACS analysis. C. Graphical representation of the orthotopic animal experiment. […] E. Calculated tumor volumes after 20 (dark grey bars) and 29 (light grey bars) days post-treatment start. […]
100% DMSO and then diluted 20-fold with sterile DDW into three groups (6 animals/group) and treated every to reach a concentration of 25 mg/ml in a final DMSO third day with DMSO (1.44%), Retro-Tf-D-LP4 (10 concentration of 5%. PLGA (50 mg) was dissolved in mg/kg) or Retro-Tf-D-LP4 (10 mg/kg) encapsulated by acetone (1 ml). […] Tumor volume was analyzed using VivoQuant 2.10 10 ml of aqueous solution containing 1% PVA (w/v). […]
(Calbiochem, UK). […] Thirteen days post-inoculation, using various primary antibodies (sources and dilutions tumor volume was measured and calculated (100-130 as detailed in supplementary Table 2), followed by mm3) and mice were randomized into three groups (5 the appropriate HRP-conjugated secondary antibodies mice/group). […]

[2] = system: U-87MG cells; assay: Morphological analysis of apoptosis by electron microscopy; format: cell-based, human; conditions: 6 h, serum-free medium, Suppl Fig 2C
Protocol: Supplementary Figure 2: Mode of action of VDAC1-based peptides. […]
detachment. SH-SY5Y cells (4×10^4/ml) were grown on cover slips, transfected with plasmid pEGFP-HK-I and after 24 h, were incubated […]
The final DMSO concentration in control and peptide-treated cells was 0.07%. Fixed cells were stained with DAPI and visualized by confocal microscopy (Olympus 1X81). Arrows indicate cells […]
showing diffusion of HK-I-GFP. B-C. […] B. SH-SY5Y cells were treated with the indicated […]
Arrows and arrowheads indicate cells with membrane blebbing (early apoptotic state) and late apoptotic states, respectively. C. Morphological analysis of apoptosis by electron microscopy (EM). For transmission EM, U-87MG cells (1.6 x10^6 /ml) were incubated with the indicated concentrations of D-ΔN-Ter-Antp peptide or DMSO (0.3% final concentration) for 6 h in serum-free medium. Cells were pelleted and fixed in Karnovsky’s fixative (2% paraformaldehyde, 2.5% glutaraldehyde in 0.1 M cacodylate buffer, pH 7.4) for 10 minutes at room temperature and then in fresh fixative for 3.5 days in the cold. Following buffer rinses, the cells were incubated with 1% osmium tetroxide in 0.1 M cacodylate buffer, dehydrated in an ethanol series, incubated with epoxy propane and embedded in Araldite resin. […]

Compound	cell death, U-87MG [1]	apoptotic morphological changes (electron microscopy) [2]
CC[C@H](C)[C@H](NC(=O)[C@H](Cc1ccc(O)cc1)NC(=O)[C@@H]1CCCN1C(=O)[C@H](CCCNC(=N)N)NC(=O)[C@H](Cc1c[nH]cn1)NC(=O)[C@H](CO)NC(=O)[C@H](Cc1c[nH]c2ccccc12)NC(=O)[C@@H](NC(=O)[C@H](Cc1c[nH]c2ccccc12)NC(=O)[C@H](CCC(=O)O)NC(=O)[C@@H](CCCCN)NC(=O)[C@@H](CCCCN)NC(=O)[C@@H](CC(C)C)NC(=O)[C@@H](CCC(=O)O)NC(=O)[C@H](NC(=O)[C@@H](C)NC(=O)[C@H](NC(=O)[C@@H](CC(N)=O)NC(=O)[C@@H](CC(C)C)NC(=O)[C@@H](C)NC(=O)[C@@H](Cc1c[nH]c2ccccc12)NC(=O)[C@H](NC(=O)[C@@H](C)NC(=O)CNC(=O)[C@@H](CC(N)=O)NC(=O)[C@@H](CO)NC(=O)[C@@H](CC(N)=O)NC(=O)[C@H](CCCCN)NC(=O)[C@H](Cc1c[nH]c2ccccc12)NC(=O)[C@@H](NC(=O)[C@H](Cc1c[nH]c2ccccc12)NC(=O)[C@@H](N)CCCCN)[C@@H](C)O)[C@H](C)O)C(C)C)[C@H](C)O)[C@@H](C)O)C(=O)N[C@@H](C)C(=O)N[C@@H](Cc1c[nH]cn1)C(=O)O [Retro-Tf-D-LP4]	induces cell death	–
CC[C@@H](C)[C@@H](NC(=O)[C@@H](CCCCN)NC(=O)[C@H](NC(=O)[C@@H](CCC(N)=O)NC(=O)[C@@H](CCCNC(=N)N)NC(=O)[C@@H](CC(C)C)NC(=O)CNC(=O)[C@@H](Cc1ccccc1)NC(=O)CNC(=O)[C@@H](Cc1ccc(O)cc1)NC(=O)CNC(=O)[C@@H](CCCCN)NC(=O)[C@H](NC(=O)[C@@H](Cc1ccccc1)NC(=O)[C@H](NC(=O)[C@@H](CC(=O)O)NC(=O)[C@H](N)CCCNC(=N)N)C(C)C)[C@H](C)O)[C@H](C)CC)C(=O)N[C@H](Cc1c[nH]c2ccccc12)C(=O)N[C@H](Cc1ccccc1)C(=O)N[C@H](CCC(N)=O)C(=O)N[C@H](CC(N)=O)C(=O)N[C@H](CCCNC(=N)N)C(=O)N[C@H](CCCNC(=N)N)C(=O)N[C@H](CCSC)C(=O)N[C@H](CCCCN)C(=O)N[C@H](Cc1c[nH]c2ccccc12)C(=O)N[C@H](CCCCN)C(=O)N[C@H](CCCCN)C(=O)O [D-ΔN-Ter-Antp] (H-[dR][dD][dV][dF][dT][dK]G[dY]G[dF]G[dL][dR][dQ][dI][dK][dI][dW][dF][dQ][dN][dR][dR][dM][dK][dW][dK][dK]-OH; N-terminus and C-terminus assumed)	–	condensation of nuclei, DNA fragmentation, and possible apoptotic body formation
